ChEMBL document CHEMBL5465560, “Selectivity Literature for EUbOPEN Chemogenomic Library” (2024)

What was measured:
[1] = biological target: DNA (cytosine-5)-methyltransferase 3B (Homo sapiens) (UniProt Q9UBC3); assay: Selectivity interaction (Methyltransferase screen (radiometric assays, panel of 8 PRMTs, 21 protein lysine methyltransferases, 3 DNA methyltransferases, and one RNA methyltransferase)) EUB0000272b DNMT3B
[2] = biological target: Dual specificity protein kinase CLK1 (Homo sapiens, UniProt P49759); conditions: at 10 µM
Dual specificity protein kinase CLK1, sequence (P49759 whole entry, looked up): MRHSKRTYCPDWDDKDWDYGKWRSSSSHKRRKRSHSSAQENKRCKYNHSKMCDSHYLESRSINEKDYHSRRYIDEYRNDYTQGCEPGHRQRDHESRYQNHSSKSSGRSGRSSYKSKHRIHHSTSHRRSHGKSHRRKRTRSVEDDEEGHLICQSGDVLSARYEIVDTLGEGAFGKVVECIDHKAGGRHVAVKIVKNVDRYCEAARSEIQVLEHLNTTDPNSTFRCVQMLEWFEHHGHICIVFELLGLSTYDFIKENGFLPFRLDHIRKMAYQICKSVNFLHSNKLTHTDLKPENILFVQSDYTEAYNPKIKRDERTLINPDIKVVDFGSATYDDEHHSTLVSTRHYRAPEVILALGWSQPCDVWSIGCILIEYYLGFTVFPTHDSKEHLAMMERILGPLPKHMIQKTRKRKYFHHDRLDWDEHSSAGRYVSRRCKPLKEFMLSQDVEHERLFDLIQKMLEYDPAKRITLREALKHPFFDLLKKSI

[3] = biological target: T1, Interleukin-1 receptor-associated kinase 3 (Homo sapiens) (UniProt Q9Y616); assay: Selectivity interaction (KinomeScan (DiscoverX)) EUB0000607a IRAK3; conditions: at 10 µM
T1 sequence (whole entry): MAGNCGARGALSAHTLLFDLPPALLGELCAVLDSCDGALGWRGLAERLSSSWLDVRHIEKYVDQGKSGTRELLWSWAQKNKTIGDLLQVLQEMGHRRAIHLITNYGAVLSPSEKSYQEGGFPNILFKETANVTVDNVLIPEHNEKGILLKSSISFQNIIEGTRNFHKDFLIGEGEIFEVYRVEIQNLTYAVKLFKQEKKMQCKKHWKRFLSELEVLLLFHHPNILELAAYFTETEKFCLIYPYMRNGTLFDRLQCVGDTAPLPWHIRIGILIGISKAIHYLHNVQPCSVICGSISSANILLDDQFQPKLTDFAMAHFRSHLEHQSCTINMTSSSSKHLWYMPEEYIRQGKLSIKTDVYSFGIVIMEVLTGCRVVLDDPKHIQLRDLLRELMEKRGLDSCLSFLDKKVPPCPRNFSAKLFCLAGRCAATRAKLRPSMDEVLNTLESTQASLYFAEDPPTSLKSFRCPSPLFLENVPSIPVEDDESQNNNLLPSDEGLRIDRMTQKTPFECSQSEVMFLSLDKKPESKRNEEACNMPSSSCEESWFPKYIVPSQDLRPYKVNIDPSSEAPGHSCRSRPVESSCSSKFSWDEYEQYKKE

[4] = biological target: SRSF protein kinase 3 (Homo sapiens) (UniProt Q9UPE1); assay: Selectivity interaction (KinomeScan (DiscoverX)) EUB0001049a SRPK3; conditions: at 1 µM
SRSF protein kinase 3 (Homo sapiens), sequence (Q9UPE1 whole entry): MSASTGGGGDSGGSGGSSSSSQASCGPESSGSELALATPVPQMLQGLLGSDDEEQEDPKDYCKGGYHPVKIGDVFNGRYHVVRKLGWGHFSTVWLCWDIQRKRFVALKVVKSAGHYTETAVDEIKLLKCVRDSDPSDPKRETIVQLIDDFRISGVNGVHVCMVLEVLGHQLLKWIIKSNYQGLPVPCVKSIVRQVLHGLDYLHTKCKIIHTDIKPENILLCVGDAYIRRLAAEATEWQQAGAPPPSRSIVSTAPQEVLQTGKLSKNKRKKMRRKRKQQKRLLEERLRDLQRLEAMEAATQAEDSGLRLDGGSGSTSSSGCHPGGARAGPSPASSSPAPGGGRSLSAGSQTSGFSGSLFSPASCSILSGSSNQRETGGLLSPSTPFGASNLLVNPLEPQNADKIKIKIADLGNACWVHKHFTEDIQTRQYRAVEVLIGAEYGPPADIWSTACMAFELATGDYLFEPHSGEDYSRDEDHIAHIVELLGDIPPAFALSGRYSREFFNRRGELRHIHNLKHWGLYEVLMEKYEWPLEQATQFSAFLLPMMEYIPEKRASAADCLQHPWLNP

[5] = tested on: Tyrosine-protein kinase ABL1 (Homo sapiens), P00519 [F317I]; assay: Selectivity interaction (KinomeScan (DiscoverX)) EUB0000045b ABL1; conditions: at 1 µM
Tyrosine-protein kinase ABL1 (Homo sapiens), P00519 [F317I], sequence (P00519 whole entry F317I): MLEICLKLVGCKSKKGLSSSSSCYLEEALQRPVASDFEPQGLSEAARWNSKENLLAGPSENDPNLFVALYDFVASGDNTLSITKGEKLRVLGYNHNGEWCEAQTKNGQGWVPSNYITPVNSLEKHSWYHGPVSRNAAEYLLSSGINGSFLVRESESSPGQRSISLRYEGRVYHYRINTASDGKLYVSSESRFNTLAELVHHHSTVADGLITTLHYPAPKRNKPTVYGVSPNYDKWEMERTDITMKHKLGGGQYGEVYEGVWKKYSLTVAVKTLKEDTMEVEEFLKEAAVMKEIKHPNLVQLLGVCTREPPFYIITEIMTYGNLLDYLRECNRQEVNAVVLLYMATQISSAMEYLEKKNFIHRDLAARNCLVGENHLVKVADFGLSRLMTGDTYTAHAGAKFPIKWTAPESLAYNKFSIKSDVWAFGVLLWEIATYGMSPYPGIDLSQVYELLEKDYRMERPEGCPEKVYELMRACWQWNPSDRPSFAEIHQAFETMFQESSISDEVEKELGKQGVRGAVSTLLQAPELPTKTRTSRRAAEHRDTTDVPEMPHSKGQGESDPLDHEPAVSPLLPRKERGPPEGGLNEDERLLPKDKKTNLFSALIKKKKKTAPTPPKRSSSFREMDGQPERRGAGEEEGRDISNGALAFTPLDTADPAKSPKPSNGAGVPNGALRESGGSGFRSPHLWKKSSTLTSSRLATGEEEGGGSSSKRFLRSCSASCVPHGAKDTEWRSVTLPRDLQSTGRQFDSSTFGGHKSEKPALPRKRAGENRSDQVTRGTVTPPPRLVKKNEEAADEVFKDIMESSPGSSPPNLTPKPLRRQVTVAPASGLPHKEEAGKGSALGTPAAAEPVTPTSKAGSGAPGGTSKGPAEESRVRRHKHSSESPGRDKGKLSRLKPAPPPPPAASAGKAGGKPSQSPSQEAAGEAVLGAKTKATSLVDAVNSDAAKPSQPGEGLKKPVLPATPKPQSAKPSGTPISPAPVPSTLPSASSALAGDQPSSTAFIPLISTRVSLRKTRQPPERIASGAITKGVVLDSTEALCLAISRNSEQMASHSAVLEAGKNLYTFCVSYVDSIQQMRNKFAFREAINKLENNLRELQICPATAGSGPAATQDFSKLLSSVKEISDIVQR

[6] = biological target: T2, cAMP-dependent protein kinase catalytic subunit PRKX (Homo sapiens) (UniProt P51817); assay: Selectivity interaction (Ambit KINOMEscan and KiNATiv profiling in Jurkat cells) EUB0000090b PRKX; format: cell-based; conditions: at 1 µM
T2 sequence (whole entry): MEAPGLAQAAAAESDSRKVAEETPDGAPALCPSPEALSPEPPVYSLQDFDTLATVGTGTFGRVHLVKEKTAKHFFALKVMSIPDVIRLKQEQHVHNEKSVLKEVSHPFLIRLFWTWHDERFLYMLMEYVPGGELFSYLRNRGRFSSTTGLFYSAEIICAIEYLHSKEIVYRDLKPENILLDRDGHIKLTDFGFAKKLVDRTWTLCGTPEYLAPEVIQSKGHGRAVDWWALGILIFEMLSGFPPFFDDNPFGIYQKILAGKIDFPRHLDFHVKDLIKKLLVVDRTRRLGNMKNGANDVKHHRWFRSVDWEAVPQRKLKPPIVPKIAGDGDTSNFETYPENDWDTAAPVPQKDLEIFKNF

[7] = biological target: Protein arginine N-methyltransferase 6 (Homo sapiens, UniProt Q96LA8); conditions: at 1 µM
Protein arginine N-methyltransferase 6, sequence (Q96LA8 whole entry, looked up): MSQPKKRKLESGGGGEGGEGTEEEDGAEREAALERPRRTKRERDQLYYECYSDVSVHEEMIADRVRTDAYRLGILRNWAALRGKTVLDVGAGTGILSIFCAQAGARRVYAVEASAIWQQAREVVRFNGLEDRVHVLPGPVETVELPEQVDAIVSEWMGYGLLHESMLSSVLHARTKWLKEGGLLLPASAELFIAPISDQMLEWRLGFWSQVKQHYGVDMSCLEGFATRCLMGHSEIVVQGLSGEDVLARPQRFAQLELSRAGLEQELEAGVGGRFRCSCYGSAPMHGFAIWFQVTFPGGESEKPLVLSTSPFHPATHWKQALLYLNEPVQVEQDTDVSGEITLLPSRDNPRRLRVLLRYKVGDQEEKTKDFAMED

[8] = biological target: T3, Mitogen-activated protein kinase kinase kinase 15 (Homo sapiens) (UniProt Q6ZN16); assay: Selectivity interaction (KinomeScan (DiscoverX)) EUB0001619a MAP3K15; conditions: at 1 µM
T3 sequence (whole entry): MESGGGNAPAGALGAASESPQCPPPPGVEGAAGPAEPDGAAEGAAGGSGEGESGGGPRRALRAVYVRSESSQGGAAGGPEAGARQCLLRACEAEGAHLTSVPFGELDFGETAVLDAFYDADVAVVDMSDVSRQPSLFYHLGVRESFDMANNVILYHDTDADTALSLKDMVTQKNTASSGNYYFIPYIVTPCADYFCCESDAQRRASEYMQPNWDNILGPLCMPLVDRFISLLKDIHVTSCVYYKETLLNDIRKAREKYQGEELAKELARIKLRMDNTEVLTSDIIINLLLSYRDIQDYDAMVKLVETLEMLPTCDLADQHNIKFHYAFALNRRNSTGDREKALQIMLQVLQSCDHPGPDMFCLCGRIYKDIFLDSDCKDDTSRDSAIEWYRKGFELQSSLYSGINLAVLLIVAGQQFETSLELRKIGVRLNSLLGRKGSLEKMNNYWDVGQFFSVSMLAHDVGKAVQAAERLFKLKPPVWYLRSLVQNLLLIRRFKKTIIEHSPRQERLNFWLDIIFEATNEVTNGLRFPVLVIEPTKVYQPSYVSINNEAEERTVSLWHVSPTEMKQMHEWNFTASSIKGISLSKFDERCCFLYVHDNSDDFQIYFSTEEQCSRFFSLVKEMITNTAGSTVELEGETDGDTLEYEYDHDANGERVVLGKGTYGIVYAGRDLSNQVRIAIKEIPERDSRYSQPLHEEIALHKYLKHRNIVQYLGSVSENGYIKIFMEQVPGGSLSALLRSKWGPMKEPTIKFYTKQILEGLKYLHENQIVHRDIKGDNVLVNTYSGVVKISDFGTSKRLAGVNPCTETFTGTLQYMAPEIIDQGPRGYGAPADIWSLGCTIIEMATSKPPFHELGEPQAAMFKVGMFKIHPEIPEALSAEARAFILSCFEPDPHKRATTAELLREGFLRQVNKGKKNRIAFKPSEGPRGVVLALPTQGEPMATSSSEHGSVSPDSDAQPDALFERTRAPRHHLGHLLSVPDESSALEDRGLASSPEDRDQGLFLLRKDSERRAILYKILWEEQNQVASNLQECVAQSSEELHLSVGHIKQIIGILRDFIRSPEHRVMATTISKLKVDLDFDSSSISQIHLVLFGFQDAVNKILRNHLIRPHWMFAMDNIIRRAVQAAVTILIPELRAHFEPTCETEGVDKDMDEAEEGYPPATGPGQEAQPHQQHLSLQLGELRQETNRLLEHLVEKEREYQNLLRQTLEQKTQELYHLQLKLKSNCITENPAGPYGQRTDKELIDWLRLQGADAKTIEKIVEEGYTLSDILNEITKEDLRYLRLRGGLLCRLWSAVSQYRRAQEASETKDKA

[9] = biological target: Cyclin-dependent kinase 16 (Homo sapiens) (UniProt Q00536); assay: Selectivity interaction (ActivX KiNativ screen (ex vivo kinase selectivity in human PBMCs)) EUB0001619a CDK16; format: cell-based; conditions: PBMC, at 1 µM
Cyclin-dependent kinase 16 (Homo sapiens), sequence (Q00536 whole entry): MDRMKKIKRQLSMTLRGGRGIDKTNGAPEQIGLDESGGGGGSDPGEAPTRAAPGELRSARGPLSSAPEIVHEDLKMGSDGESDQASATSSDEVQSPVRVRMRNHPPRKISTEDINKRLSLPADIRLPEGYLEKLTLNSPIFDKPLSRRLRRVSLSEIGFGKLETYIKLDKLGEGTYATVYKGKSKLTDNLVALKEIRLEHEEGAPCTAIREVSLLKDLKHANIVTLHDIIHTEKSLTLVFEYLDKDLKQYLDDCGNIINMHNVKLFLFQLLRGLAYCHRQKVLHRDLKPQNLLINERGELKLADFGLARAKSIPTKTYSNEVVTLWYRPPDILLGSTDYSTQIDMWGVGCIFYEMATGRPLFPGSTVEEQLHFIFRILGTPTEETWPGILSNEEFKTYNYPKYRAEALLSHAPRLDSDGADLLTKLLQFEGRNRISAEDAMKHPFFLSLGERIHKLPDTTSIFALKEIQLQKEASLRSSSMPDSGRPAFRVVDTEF

## Cc1cc(C)cc([C@H]2c3cc(C)ccc3NC(=O)CN2C(=O)c2ccc(Br)s2)c1
[1]; at 1 µM
  % of activity: 97.3%
[1]; at 10 µM
  % of activity: 102%

## Cc1cc([C@@H](C)Nc2ccccc2C(=O)O)c2nc(N3CCOCC3)cc(=O)n2c1 [AZD-6482]
[2]
  % of control: 74%

## CNC(=O)Nc1ccc(-c2nc(N3CC4CCC(C3)O4)c3cnn(C4CCC5(CC4)OCCO5)c3n2)cc1
[3]
  % of control: 100%

## COc1cc(Nc2nc(C)cc(-c3cnn4nc(OC)ccc34)n2)cc(C(F)(F)F)c1
[4]
  % of control: 65%

## C=CC(=O)Nc1cc(-n2c(=O)ccc3cnc4ccc(-c5ccc(NS(C)(=O)=O)cc5)cc4c32)ccc1C
[5]
  % of control: 81%

## CN(C)C/C=C/C(=O)Nc1ccc(C(=O)N2CCCC(Nc3ncc(Cl)c(-c4c[nH]c5ccccc45)n3)C2)cc1 (stereo not given)
[6]
  % of control: 89%

## CNCCN1CCC(c2cc(CN(C)C(=O)c3cccc(Oc4ccccc4)c3)ccn2)CC1
[7]
  % activity: > 90%

## N#Cc1cccc(-c2c[nH]c3ncnc(N4CCOCC4)c23)c1
[8]
  % of control: 74%
[9]
  % of inhibition: 25%
